Where two headings read alike, the source gives them in different places.
Tests used:
[1] = test system: pseudovirus bearing S protein of SARS-CoV-2 lineage B.1; assay: organism not typed; format: cell-based; conditions: for inhibition at 0.00025 µM / inhibition at 0.0025 µM / inhibition at 0.025 µM / inhibition at 0.25 µM / inhibition at 2.5 µM / inhibition at 25 µM: Calu-3, B.1; for inhibition at 0.00025 µM: concentration 0.25 nM; for inhibition at 0.0025 µM: concentration 2.5 nM; for inhibition at 0.025 µM: concentration 25 nM; for inhibition at 0.25 µM: concentration 250 nM; for inhibition at 2.5 µM: concentration 2500 nM; for inhibition at 25 µM: concentration 25000 nM; for IC50: Calu-3 cells, read-out: IC50, pseudovirus cell entry B.1
[2] = test system: pseudovirus bearing S protein of SARS-CoV-2 lineage BA.2.86; assay: organism not typed; format: cell-based; conditions: for inhibition at 0.00025 µM / inhibition at 0.0025 µM / inhibition at 0.025 µM / inhibition at 0.25 µM / inhibition at 2.5 µM / inhibition at 25 µM: Calu-3, BA.2.86; for inhibition at 0.00025 µM: concentration 0.25 nM; for inhibition at 0.0025 µM: concentration 2.5 nM; for inhibition at 0.025 µM: concentration 25 nM; for inhibition at 0.25 µM: concentration 250 nM; for inhibition at 2.5 µM: concentration 2500 nM; for inhibition at 25 µM: concentration 25000 nM; for IC50: Calu-3 cells, read-out: IC50, pseudovirus cell entry BA.2.86
[3] = test system: pseudoviruses carrying diverse coronavirus S proteins; format: cell-based
[4] = test system: SARS-CoV-2 isolate hCoV-19/Germany/FI1103201/2020; assay: microbe, parasite or virus in culture; format: cell-based
[5] = test system: Calu-3 cells; assay: Analysis of cell viability (CellTiter-Glo); format: cell-based, human; conditions: 24 h, Supplementary Fig. S6
Procedure: Cells incubated with a medium containing DMSO (solvent) served as controls. Cell viability was assessed using the CellTiter-Glo® Luminescent Cell Viability Assay (Promega) according to the manufacturer’s instructions. Data normalization was performed as follows: cell viability in the absence of inhibitor (DMSO-only samples) was set as 100% and the relative viability of cells incubated with the respective inhibitor concentrations was calculated.

| SMILES | inhibition at 0.00025 µM [1] | inhibition at 0.0025 µM [1] | inhibition at 0.025 µM [1] | inhibition at 0.25 µM [1] | inhibition at 2.5 µM [1] | inhibition at 25 µM [1] | IC50 [1] | inhibition at 0.00025 µM [2] | inhibition at 0.0025 µM [2] | inhibition at 0.025 µM [2] | inhibition at 0.25 µM [2] | inhibition at 2.5 µM [2] | inhibition at 25 µM [2] | IC50 [2] | fold more potent than camostat (lower IC50) [3] | fold more potent than camostat (lower IC50) ([3]; SARS-CoV-2 lineages B.1, B.1.617.2, EG.5.1, BA.2.86, Calu-3 cells) | IC50 ([4]; Severe acute respiratory syndrome coronavirus 2, Calu-3, 24 h, read-out: IC50, relative infectivity of SARS-CoV-2) | IC50 ([4]; Severe acute respiratory syndrome coronavirus 2, Calu-3 cells, Figure S5, read-out: IC50 estimate, SARS-CoV-2 entry inhibition) | cytotoxicity at concentrations used for preincubation [5] |
| --- | --- | --- | --- | --- | --- | --- | --- | --- | --- | --- | --- | --- | --- | --- | --- | --- | --- | --- | --- |
| CC(C)(C)NC(=O)N1CCN(C(=O)N2C(=O)C(CCCNC(=N)N)C2C(=O)O)CC1 (stereo not drawn) [BMS-262084] | 7.25% | 11.1% | 52.1% | 86.2% | 92.8% | 93.3% | 24.5 nM | 2.76% | 1.45% | 44.5% | 74.7% | 89.7% | 98.9% | 48.2 nM | ~2 fold | 3–8 fold | 510 nM | 509 ± 146 nM | noncytotoxic |
| CN(C)C(=O)COC(=O)Cc1ccc(OC(=O)c2ccc(NC(=N)N)cc2)cc1 [camostat] | -1.94% | 3.06% | 2.53% | 60.8% | 89.4% | 96.6% | 190 nM | 2.77% | 3.7% | 24% | 61.2% | 85.5% | 85.8% | 148 nM | – | – | – | – | – |
